Assay results reported in US20210087496A1, “Non-Enzymatic Removal Of Proteinaceous Soils” (Henkel AG & Co. KGaA, priority 2019, published 2021).
Where two headings read alike, the source gives them in different places.

Target: T1, Maillard product of lactose and albumin from chicken egg (band at ~50-55 kDa) (Gallus gallus, UniProt P01012)
T1 sequence (P01012 1-386): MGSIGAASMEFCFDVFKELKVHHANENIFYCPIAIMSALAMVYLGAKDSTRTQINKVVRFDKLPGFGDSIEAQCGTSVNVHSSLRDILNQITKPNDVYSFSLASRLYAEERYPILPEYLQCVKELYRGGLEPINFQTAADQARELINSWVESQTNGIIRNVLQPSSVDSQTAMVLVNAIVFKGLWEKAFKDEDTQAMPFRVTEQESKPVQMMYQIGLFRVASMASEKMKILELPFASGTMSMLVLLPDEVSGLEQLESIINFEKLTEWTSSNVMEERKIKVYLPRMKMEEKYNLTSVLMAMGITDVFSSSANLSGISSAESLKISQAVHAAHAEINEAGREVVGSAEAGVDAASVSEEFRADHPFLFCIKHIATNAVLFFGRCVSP
Details: complex 0.2 mM, Maillard product 3 g/l, 60° C., pH 9.5
Method: A mixture of lactose and albumin from chicken egg, approx. 45 000 g/mol, in a weight ratio of 3:1 was dissolved in de-salinated water and stirred for 30 min at room temperature. The resulting solution was lyophilized using a commercial lab lyophilizer (Christ; Gamma 1-20) and homogenized. 0.5 g of the resulting powder was heated to 140° C. for 20 min and was then allowed to cool to room temperature. […] An aqueous solution of the Maillard product (3 g/l) was incubated at 60° C. at pH 9.5 (hydrogen carbonate/carbonate buffer) with the complexes of examples 1 and 2 at the concentrations and for amounts of time given in table 1. The progress of protein degradation was followed by SDS page gel analysis. The intensity value of the band at ˜50-55 kDa at time t=0, that is before the start of incubation, is set to 1.

O=C1CN2CCN3CC(=O)[O][Zr]([O]1)([O]c1ccccc1C2)[O]c1ccccc1C3 [Complex K1]
Intensity of the band at ~50-55 kDa (t = 0 h (before start of incubation, set to 1)): 1 | Intensity of the band at ~50-55 kDa (t = 1 h, relative to t=0 set to 1): 0.91 | Intensity of the band at ~50-55 kDa (t = 2 h, relative to t=0 set to 1): 0.83
